Laboratory results from patent US8859580B2 (Boehringer Ingelheim International GmbH, priority 2007, dated 2014).

Biological target: T1, 11β-HSD1 (Homo sapiens, UniProt P28845)
T1 construct: detecting cortisol generated from cortisterone by human liver microsomes; from tissue; host or cells: human liver microsomes
Test: In vitro inhibition of 11β-HSD1, HTRF detection of cortisol generated from cortisone by human liver microsomes
Type: biochemical
Conditions: 11β-HSD IC50 (nM), 1 hour at 37° C., pH 6.0, NADPH 200 μM, cortisone 80 nM, inhibition relative to carbenoxolone signal
Experimental: Cortisol generated in the reaction is then detected with a competitive immunoassay, involving two HTRF conjugates: cortisol linked to XL665 and anti-cortisol antibody labeled with Europium cryptate. The incubation period for detection reaction was typically 2 hours. […] The ratio of the two emission signals is then calculated (Em665*10000/Em615). […] Each assay also contained a calibration curve with cortisol to transform the fluorescent data into cortisol concentrations. Percent inhibition of each compound was determined relative to the carbenoxolone signal and IC50 curves were generated.

T1 sequence (P28845 whole entry): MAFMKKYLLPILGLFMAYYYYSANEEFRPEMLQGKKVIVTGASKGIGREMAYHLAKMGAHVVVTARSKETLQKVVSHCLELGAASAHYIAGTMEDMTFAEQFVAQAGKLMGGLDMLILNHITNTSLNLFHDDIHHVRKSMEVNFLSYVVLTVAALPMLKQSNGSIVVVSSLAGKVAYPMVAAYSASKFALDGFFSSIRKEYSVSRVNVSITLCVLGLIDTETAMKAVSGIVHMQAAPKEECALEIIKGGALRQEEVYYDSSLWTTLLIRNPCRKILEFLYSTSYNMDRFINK

Compared with `COc1ccc(C(=O)N2CC[C@@]3(C)c4cccc(O)c4C[C@@H]2C3(C)C)cc1` [Example 14, [(2R,6S)-10-Hydroxy-6,11,11-trimethyl-1,2,5,6-tetrahydro-4H-2,6-methano-benzo[d]azocin-3-yl]-(4-methoxy-phenyl)-methanone], `CC(=O)Nc1ccc(C(=O)N2CC[C@@]3(C)c4cccc(O)c4C[C@@H]2C3(C)C)cc1` [Example 15, N-{4-[(2R,6S)-10-Hydroxy-6,11,11-trimethyl-1,2,5,6-tetrahydro-4H-2,6-methano-benzo[d]azocine-3-carbonyl]-phenyl}-acetamide] is 2.1-fold lower in IC50: 734 nM for the first, 354 nM for the second.

First: CC(O)(c1ccc(C(=O)N2CC[C@@]3(C)c4cccc(O)c4C[C@@H]2C3(C)C)cc1)C(F)(F)F (stereo partly drawn) [Example 16, [(2R,6S)-10-Hydroxy-6,11,11-trimethyl-1,2,5,6-tetrahydro-4H-2,6-methano-benzo[d]azocin-3-yl]-[4-(2,2,2-trifluoro-1-hydroxy-1-methyl-ethyl)-phenyl]-methanone]
Second: CC1(C)[C@H]2Cc3c(O)cccc3[C@]1(C)CCN2C(=O)c1ccc(N2CCOCC2)cc1 [Example 25, [(2R,6S)-10-Hydroxy-6,11,11-trimethyl-1,2,5,6-tetrahydro-4H-2,6-methano-benzo[d]azocin-3-yl]-(4-morpholin-4-yl-phenyl)-methanone]
The IC50 of the first is 1.9-fold lower: 360 nM for the first, 686 nM for the second. The first is the more potent here.

Going from `Cc1nc2ccc(C(=O)N3CC[C@@]4(C)c5cccc(O)c5C[C@@H]3C4(C)C)cc2[nH]1` [Example 17, [(2R,6S)-10-Hydroxy-6,11,11-trimethyl-1,2,5,6-tetrahydro-4H-2,6-methano-benzo[d]azocin-3-yl]-(2-methyl-3H-benzoimidazol-5-yl)-methanone] to `CC1(C)[C@H]2Cc3c(O)cccc3[C@]1(C)CCN2C(=O)c1ccc2nn[nH]c2c1` [Example 21, (3H-Benzotriazol-5-yl)-[(2R,6S)-10-hydroxy-6,11,11-trimethyl-1,2,5,6-tetrahydro-4H-2,6-methano-benzo[d]azocin-3-yl]-methanone], the IC50 falls from 1380 nM to 669 nM (2.1-fold). The second is the more potent here.

Compared with `CC1(C)[C@H]2Cc3c(O)cccc3[C@]1(C)CCN2C(=O)c1cccc2[nH]cnc12` [Example 18, (1H-Benzoimidazol-4-yl)-[(2R,6S)-10-hydroxy-6,11,11-trimethyl-1,2,5,6-tetrahydro-4H-2,6-methano-benzo[d]azocin-3-yl]-methanone], `Cn1cnc2cc(C(=O)N3CC[C@@]4(C)c5cccc(O)c5C[C@@H]3C4(C)C)ccc21` [Example 19, [(2R,6S)-10-Hydroxy-6,11,11-trimethyl-1,2,5,6-tetrahydro-4H-2,6-methano-benzo[d]azocin-3-yl]-(1-methyl-1H-benzoimidazol-5-yl)-methanone] is 5.6-fold lower in IC50: 3680 nM for the first, 658 nM for the second.

Going from `CC1(C)[C@H]2Cc3c(O)cccc3[C@]1(C)CCN2C(=O)c1ccc2c(c1)OCCO2` [Example 20, (2,3-Dihydro-benzo[1,4]dioxin-6-yl)-[(2R,6S)-10-hydroxy-6,11,11-trimethyl-1,2,5,6-tetrahydro-4H-2,6-methano-benzo[d]azocin-3-yl]-methanone] to `CC1(C)[C@H]2Cc3c(O)cccc3[C@]1(C)CCN2C(=O)c1ccc(CN2CCOCC2)cc1` [Example 24, [(2R,6S)-10-Hydroxy-6,11,11-trimethyl-1,2,5,6-tetrahydro-4H-2,6-methano-benzo[d]azocin-3-yl]-(4-morpholin-4-ylmethyl-phenyl)-methanone], the IC50 falls from 254 nM to 134 nM (1.9-fold).

Going from `CC1(C)[C@H]2Cc3c(O)cccc3[C@]1(C)CCN2C(=O)c1ccc(CN2CCCCC2)cc1` [Example 22, [(2R,6S)-10-Hydroxy-6,11,11-trimethyl-1,2,5,6-tetrahydro-4H-2,6-methano-benzo[d]azocin-3-yl]-(4-piperidin-1-ylmethyl-phenyl)-methanone] to `CC1(C)[C@H]2Cc3c(O)cccc3[C@]1(C)CCN2C(=O)c1ccc(N2CCNCC2)cc1` [Example 26, [(2R,6S)-10-Hydroxy-6,11,11-trimethyl-1,2,5,6-tetrahydro-4H-2,6-methano-benzo[d]azocin-3-yl]-(4-piperazin-1-yl-phenyl)-methanone], the IC50 falls from 5040 nM to 2890 nM (1.7-fold). The second is the more potent here.
